Experimental data: ChEMBL document CHEMBL1201862, “PubChem BioAssay data set” (2004)
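Growth conditions: 96-well plates. Treatment: test compound, 48 hours, 5 concentrations. Analysis: linear interpolation between bracketing concentrations; unreached endpoints set to highest concentration. GI50 is the concentration that inhibits growth by half.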 Active and inactive are the calls of the source. Rule as the data show it: active = GI50 up to about 1.1 µM and inactive = higher.

What was measured:
Test in all cases: growth of human tumour cells (NCI), 48 h
M14 = system: M14
ACHN = system: ACHN
Malme-3M = system: Malme-3M
UACC-257 = system: UACC-257
SW-620 = system: SW-620
SK-OV-3 = system: SK-OV-3
OVCAR-3 = system: OVCAR-3
LXFL 529 = system: LXFL 529
SF-268 = system: SF-268
IGROV-1 = system: IGROV-1
M19-MEL = system: M19-MEL
HT-29 = system: HT-29
NCI-H460 = system: NCI-H460
SK-MEL-5 = system: SK-MEL-5
NCI-H522 = system: NCI-H522
U-251 = system: U-251
UO-31 = system: UO-31
OVCAR-5 = system: OVCAR-5
SNB-78 = system: SNB-78
OVCAR-4 = system: OVCAR-4
OVCAR-8 = system: OVCAR-8
XF498 = system: XF498
K562 = system: K562
TK-10 = system: TK-10
786-0 = system: 786-0
COLO 205 = system: COLO 205
KM12 = system: KM12
HOP-18 = system: HOP-18
HCT-116 = system: HCT-116
HCT-15 = system: HCT-15
NCI-H23 = system: NCI-H23
SK-MEL-28 = system: SK-MEL-28
UACC-62 = system: UACC-62
SNB-19 = system: SNB-19
HCC 2998 = system: HCC 2998
SN12C = system: SN12C
DLD-1 = system: DLD-1
A498 = system: A498
SNB-75 = system: SNB-75
KM-20L2 = system: KM-20L2
HOP-62 = system: HOP-62
HL-60 = system: HL-60
DMS-114 = system: DMS-114
NCI-H226 = system: NCI-H226
HOP-92 = system: HOP-92
CAKI-1 = system: CAKI-1
CCRF-CEM = system: CCRF-CEM
RXF 631 = system: RXF 631
RXF 393 = system: RXF 393
SR = system: SR
A549 = system: A549
SF-295 = system: SF-295
EKVX = system: EKVX
SF-539 = system: SF-539
LOX IMVI = system: LOX IMVI

For `CCOC(=O)C(/C(=N/NC(=O)OC)C(=O)Nc1ccc(C(C)=O)cc1)c1cnc2ccccc2n1` (stereo not given), the GI50 (M14) was > 100 µM (inactive), the GI50 (ACHN) was > 100 µM (inactive) and the GI50 (Malme-3M) was > 100 µM (inactive). The GI50 (UACC-257) was > 100 µM (inactive), the GI50 (SW-620) was > 100 µM (inactive) and the GI50 (SK-OV-3) was > 100 µM (inactive). For the same compound, the GI50 (OVCAR-3) was > 100 µM (inactive), the GI50 (LXFL 529) was > 100 µM (inactive) and the GI50 (SF-268) was > 100 µM (inactive). For the same compound, the GI50 (IGROV-1) was > 100 µM (inactive), the GI50 (M19-MEL) was > 100 µM (inactive) and the GI50 (HT-29) was > 100 µM (inactive). The GI50 (NCI-H460) was > 100 µM (inactive), the GI50 (SK-MEL-5) was > 100 µM (inactive) and the GI50 (NCI-H522) was > 100 µM (inactive). The GI50 (U-251) was > 100 µM (inactive), the GI50 (UO-31) was > 100 µM (inactive) and the GI50 (OVCAR-5) was > 100 µM (inactive). The GI50 (SNB-78) was > 100 µM (inactive), the GI50 (OVCAR-4) was > 100 µM (inactive) and the GI50 (OVCAR-8) was > 100 µM (inactive). For the same compound, the GI50 (XF498) was > 100 µM (inactive), the GI50 (K562) was > 100 µM (inactive) and the GI50 (TK-10) was > 100 µM (inactive). For the same compound, the GI50 (786-0) was > 100 µM (inactive), the GI50 (COLO 205) was > 100 µM (inactive) and the GI50 (KM12) was > 100 µM (inactive). For the same compound, the GI50 (HOP-18) was > 100 µM (inactive), the GI50 (HCT-116) was > 100 µM (inactive) and the GI50 (HCT-15) was greater than 100 µM. For the same compound, the GI50 (NCI-H23) was > 100 µM (inactive), the GI50 (SK-MEL-28) was > 100 µM (inactive) and the GI50 (UACC-62) was > 100 µM (inactive). For the same compound, the GI50 (SNB-19) was > 100 µM (inactive), the GI50 (HCC 2998) was > 100 µM (inactive) and the GI50 (SN12C) was > 100 µM (inactive). For the same compound, the GI50 (DLD-1) was > 100 µM (inactive), the GI50 (A498) was > 100 µM (inactive) and the GI50 (SNB-75) was 90.8 µM (inactive). The GI50 (KM-20L2) was > 100 µM (inactive), the GI50 (HOP-62) was > 100 µM (inactive) and the GI50 (HL-60) was > 100 µM (inactive). For the same compound, the GI50 (DMS-114) was > 100 µM (inactive), the GI50 (NCI-H226) was > 100 µM (inactive) and the GI50 (HOP-92) was > 100 µM (inactive). For the same compound, the GI50 (CAKI-1) was > 100 µM (inactive), the GI50 (CCRF-CEM) was > 100 µM (inactive) and the GI50 (RXF 631) was > 100 µM (inactive). For the same compound, the GI50 (RXF 393) was > 100 µM (inactive), the GI50 (SR) was > 100 µM (inactive) and the GI50 (A549) was > 100 µM (inactive). The GI50 (SF-295) was > 100 µM (inactive), the GI50 (EKVX) was > 100 µM (inactive) and the GI50 (SF-539) was > 100 µM (inactive). The GI50 (LOX IMVI) was > 100 µM (inactive).
